Drawing on ChEMBL document CHEMBL1133335, “Serendipitous synthesis of novel dehydro- and dechloro-pseudomycin B (PSB) derivatives” (Bioorg Med Chem Lett, 2000), this text covers MIC and Tail vein toxicity for four molecules.

≈ marks a conversion by molar mass, not a printed value. Where a SMILES comes first, the peptide text is derived from it. Bridges are numbered along the chain shown (N, C = ends). [ ]: non-standard residue; d: D form. The star is where a group is joined. Tetradecanoyl(3R-OH) = CCCCCCCCCCC[C@@H](O)CC(=O)*; Asp(3S-OH) = N[C@H](C(=O)O)[C@H](O)C(=O)O; Thr(4-Cl) = N[C@H](C(=O)O)[C@H](O)CCl; aThr = C[C@H](O)[C@H](N)C(=O)O; dDab = NCC[C@@H](N)C(=O)O; Dab = NCC[C@H](N)C(=O)O; Dhb = C/C=C(\N)C(=O)O

For one data set, the system named is Cryptococcus neoformans. The experiment in a line: In vitro minimum inhibitory concentration against Cryptococcus neoformans. It counts as functional.
In the next data set the test system is Candida albicans. Put plainly: In vitro minimum inhibitory concentration against Candida albicans. In kind it is functional.
Data set [1] deals with Mus musculus. Put plainly: Compound (at 20 mg/kg) was tested to induce tail vein irritation in mice; Negative. In kind it is ADME, organism-based. On the set-up: dose 20 mg/kg. Conditions: in vivo.
The test system of the next data set is Aspergillus fumigatus. The experiment in a line: In vitro minimum inhibitory concentration against Aspergillus fumigatus. In kind it is functional.
For data set [2], the system named is Mus musculus. The experiment in a line: Compound (at 20 mg/kg) was tested to induce tail vein irritation in mice; Positive. In kind it is ADME, organism-based. Set-up: dose 20 mg/kg. Conditions: in vivo.

As for `C/C=C1\NC(=O)[C@H]([C@@H](C)O)NC(=O)[C@@H](CCN)NC(=O)[C@H](CCCCN)N2C(=O)C[C@@H](NC(=O)[C@H](CCN)NC(=O)C(NC(=O)C[C@@H](O)CCCCCCCCCCC)COC(=O)[C@@H]([C@@H](O)CCl)NC(=O)[C@H]([C@H](O)C(=O)O)NC1=O)C2=O` (stereo not given in full), the values for the MIC in the data set with Cryptococcus neoformans, in the data set on Candida albicans and in the data set on Aspergillus fumigatus were 10 µg/mL (≈ 8.41 µM), greater than 20 µg/mL and greater than 20 µg/mL, respectively. For the same molecule, the Tail vein toxicity result with Mus musculus [1] is “Negative”.

Consider `C/C=C1\NC(=O)[C@H]([C@H](C)O)NC(=O)[C@H](CCN)NC(=O)[C@H](CCCCN)NC(=O)[C@H]2CC(=O)O[C@H](C(=O)O)[C@H](NC1=O)C(=O)N[C@@H]([C@H](O)CCl)C(=O)OC[C@H](NC(=O)C[C@H](O)CCCCCCCCCCC)C(=O)N[C@H](CCN)C(=O)N2`, for which the MIC (in general, the lowest concentration found to suppress growth) in the data set on Cryptococcus neoformans was 0.625 µg/mL (≈ 0.525 µM); in the data set on Candida albicans, 5 µg/mL (≈ 4.2 µM); in the data set on Aspergillus fumigatus it was greater than 20 µg/mL. The Tail vein toxicity entry with Mus musculus [1] is recorded as “Negative”.

In the case of `C/C=C1\NC(=O)[C@H]([C@H](C)O)NC(=O)[C@H](CCN)NC(=O)[C@H](CCCCN)N2C(=O)C[C@H](NC(=O)[C@@H](CCN)NC(=O)[C@@H](NC(=O)C[C@H](O)CCCCCCCCCCC)COC(=O)/C(=C\CO)NC(=O)[C@H]([C@H](O)C(=O)O)NC1=O)C2=O`, the MIC against Cryptococcus neoformans was 20 µg/mL (≈ 17.3 µM); in the data set with Candida albicans, greater than 20 µg/mL; against Aspergillus fumigatus, greater than 20 µg/mL.

Consider `C/C=C1\NC(=O)[C@H]([C@H](C)O)NC(=O)[C@H](CCN)NC(=O)[C@H](CCCCN)NC(=O)[C@H](CC(=O)O)NC(=O)[C@@H](CCN)NC(=O)[C@@H](NC(=O)C[C@H](O)CCCCCCCCCCC)COC(=O)[C@H]([C@H](O)CCl)NC(=O)[C@H]([C@H](O)C(=O)O)NC1=O` [PSEUDOMYCIN B] ({Tetradecanoyl(3R-OH)}-S[dDab]DK[Dab][aThr][Dhb][Asp(3S-OH)][Thr(4-Cl)]; ester 1-C), for which the MIC against Cryptococcus neoformans is less than 0.01 µg/mL; in the data set with Candida albicans, 0.312 µg/mL (≈ 0.258 µM); against Aspergillus fumigatus it was 20 µg/mL (≈ 16.6 µM). In addition, in the data set with Mus musculus [2], the Tail vein toxicity entry is on record as “POSITIVE”.
